Experimental data published in patent US4027039A (priority 1975, dated 1977).
Values joined by “and” are separate entries in the source; they are usually repeats but may differ in a detail not shown here. Identical values can stand only once. “Also recorded” adds a separate entry of the source. Counter-ions that a name gives are not always drawn. Like-named read-outs stand apart in the source and are kept apart here.

Key:
[1] = tested on: Influenza PR 8 virus; experiment: Influenza PR 8 in mice, oral; schedule by table; late read day 6 (Table 37), 7 (33, 36), 8 (32, 35, 47), 10 (38); control fraction 18/20 (Table 32), 19/20 (Table 35), else 100%; format: in vivo, mouse
[2] = tested on: Influenza B Massachusetts virus; experiment: Influenza B Mass. in mice, oral; late read day 5 (Table 39), 7 (Table 40), 11 (Tables 61, 65); control fraction 16/20 (Table 61), else 100%; format: in vivo, mouse
Protocol: A portion of a commercially available sample of amantadine was recrystallized from isopropanol. The activity of the material against Influenza B Mass. was tested for the sample as obtained, the recrystallized portion, and the mother liquor obtained from recrystallizing the portion.

[3] = tested on: Herpes virus
[4] = tested on: viral infections; experiment: Antiviral screening in animals, general statements; details: mouse, in vivo
[5] = tested on: Influenza, Ann Arbor virus; experiment: Influenza Ann Arbor in mice, oral; schedule by table; late read day 5 (Tables 15, 25, 29, 30), 6 (18, 20, 22, 23, 26, 27, 28, 54), 7 (14, 19, 21, 24, 53, 56), 8 (16, 17, 51), 9 (11, 55); format: in vivo, mouse
[6] = tested on: Influenza B Maryland virus; experiment: Influenza B Maryland in mice, oral; format: in vivo, mouse
[7] = tested on: Influenza, Ann Arbor virus; experiment: Influenza Ann Arbor in mice, subcutaneous; late read day 9 (Table 11), 7 (Tables 12, 14), 5 (Table 13); format: in vivo, mouse
[8] = tested on: Vaccinia IHD virus; format: in vivo, mouse
[9] = tested on: Neurovaccinia virus; experiment: Neurovaccinia in mice; details: intraperitoneal
[10] = tested on: Columbia SK Polio virus; format: in vivo, mouse; details: mouse, in vivo
[11] = tested on: Vaccinia virus; format: in vivo, rabbit; details: rabbit, in vivo

NNC(=O)c1ccncc1 [Isoniazid, isoniazid, reference compound]
No. animals surviving after 6-10 days ([1]; total dose 5 μg): 5 | No. animals surviving after 6-10 days ([1]; total dose .0000005 μg): 1 | No. animals surviving when 100% (or given fraction) of controls are dead ([1]; total dose .0000005 μg): 0 | Survivors ([1]; total dose .0000005 μg): 0 | No. animals surviving when 100% (or given fraction) of controls are dead ([1]; total dose .000005 μg): 1 | Survivors ([1]; total dose .000005 μg): 0 | No. animals surviving after 6-10 days ([1]; total dose .00005 μg): 0 | No. animals surviving when 100% (or given fraction) of controls are dead ([1]; total dose .00005 μg): 0 | Survivors ([1]; total dose .00005 μg): 0 | No. animals surviving after 6-10 days ([1]; total dose .0005 μg): 0 | No. animals surviving when 100% (or given fraction) of controls are dead ([1]; total dose .0005 μg): 0 | Survivors ([1]; total dose .0005 μg): 0 | No. animals surviving after 6-10 days ([1]; total dose .005 μg): 1 | No. animals surviving when 100% (or given fraction) of controls are dead ([1]; total dose .005 μg): 1 | Survivors ([1]; total dose .005 μg): 1 | No. animals surviving when 100% (or given fraction) of controls are dead ([1]; total dose .05 μg): 0 | Survivors ([1]; total dose .05 μg): 1 | No. animals surviving when 100% (or given fraction) of controls are dead ([1]; total dose .5 μg): 1 | Survivors ([1]; total dose .5 μg): 1 | No. animals surviving after 5 days (Table 61: 11 days) ([2]; total dose .000005 μg (5 pg)): 3 | No. animals surviving when 100% (Table 61: 16/20) of controls are dead ([2]; total dose .000005 μg (5 pg)): 0 | Survivors ([2]; total dose .000005 μg (5 pg)): 0 | No. animals surviving after 5 days (Table 61: 11 days) ([2]; total dose .00005 μg (50 pg)): 2 | No. animals surviving when 100% (Table 61: 16/20) of controls are dead ([2]; total dose .00005 μg (50 pg)): 1 | Survivors ([2]; total dose .00005 μg (50 pg)): 0 | No. animals surviving after 5 days (Table 61: 11 days) ([2]; total dose .0005 μg (500 pg)): 3 | No. animals surviving when 100% (Table 61: 16/20) of controls are dead ([2]; total dose .0005 μg (500 pg)): 2 | Survivors ([2]; total dose .0005 μg (500 pg)): 0 | No. animals surviving after 5 days (Table 61: 11 days) ([2]; total dose .005 μg (5 ng)): 5 | No. animals surviving when 100% (Table 61: 16/20) of controls are dead ([2]; total dose .005 μg (5 ng)): 1 | Survivors ([2]; total dose .005 μg (5 ng)): 0 | No. animals surviving after 5 days (Table 61: 11 days) ([2]; total dose .05 μg (50 ng)): 3 | No. animals surviving when 100% (Table 61: 16/20) of controls are dead ([2]; total dose .05 μg (50 ng)): 1 | Survivors ([2]; total dose .05 μg (50 ng)): 0 | No. animals surviving after 5 days (Table 61: 11 days) ([2]; total dose .5 μg (500 ng)): 3 | No. animals surviving when 100% (Table 61: 16/20) of controls are dead ([2]; total dose .5 μg (500 ng)): 0 | Survivors ([2]; total dose .5 μg (500 ng)): 0 | No. animals surviving after 6-9 days ([3]; total dose .0000005 μg): 4 | No. animals surviving when 100% (or given fraction) of controls are dead ([3]; total dose .0000005 μg): 1 | Survivors ([3]; total dose .0000005 μg): 1 | No. animals surviving when 100% (or given fraction) of controls are dead ([3]; total dose .005 μg): 1 | No. animals surviving after 6-9 days ([3]; total dose .05 μg): 4 | No. animals surviving when 100% (or given fraction) of controls are dead ([3]; total dose .05 μg): 1 | Survivors ([3]; total dose .05 μg): 1 | activity in words [4]: active | maximum protective effect, treated animals survived [4]: 30%

CN1C(=O)/C(=N\NC(N)=S)c2ccccc21 [Methisazone, 1-methylindole-2,3-dione, 3-thiosemicarbazone, reference compound]
No. animals surviving after 5-9 days ([5]; total dose 5 μg): 4 | Survivors ([5]; total dose 5 μg): 0 | No. animals surviving after 5-9 days ([5]; total dose 50 μg): 3 | Survivors ([5]; total dose 50 μg): 0 | No. animals surviving after 5-9 days ([5]; total dose .00005 μg): 6 | Survivors ([5]; total dose .00005 μg): 0 | No. animals surviving after 5-9 days ([5]; total dose .0005 μg): 5 | Survivors ([5]; total dose .0005 μg): 0 | No. animals surviving after 5-9 days ([5]; total dose .005 μg): 5 | Survivors ([5]; total dose .005 μg): 0 | No. animals surviving after 5-9 days ([5]; total dose .05 μg): 4 | Survivors ([5]; total dose .05 μg): 0 | No. animals surviving after 5-9 days ([5]; total dose .5 μg): 6 | Survivors ([5]; total dose .5 μg): 0 | activity in words ([6]; mouse, in vivo): active | No. animals surviving when 18/20 of controls are dead ([6]; total dose 6 ng): 4 | Survivors ([6]; total dose 6 ng): 2 | No. animals surviving when 18/20 of controls are dead ([6]; total dose 60 ng): 4 | Survivors ([6]; total dose 60 ng): 2 | No. animals surviving when 18/20 of controls are dead ([6]; total dose 600 ng): 2 | Survivors ([6]; total dose 600 ng): 2 | No. animals surviving when 18/20 of controls are dead ([6]; total dose 6 μg): 4 | Survivors ([6]; total dose 6 μg): 1 | No. animals surviving after 6-9 days ([3]; total dose .0000005 μg): 4 and 3 | No. animals surviving after 6-9 days ([3]; total dose .05 μg): 1 | No. animals surviving when 100% (or given fraction) of controls are dead ([3]; total dose .05 μg): 0 | Survivors ([3]; total dose .05 μg): 0 | activity in words [4]: active against pox virus infections of mice; also recorded: activity

N=C(N)NN [aminoguanidine, bicarbonate]
Survivors ([2]; total dose 40 pg): 0 | Survivors ([2]; total dose 400 pg): 2 | Survivors ([2]; total dose 4 ng): 0 | Survivors ([2]; total dose 40 ng): 1 | Survivors ([2]; total dose 400 ng): 1 | Survivors ([2]; total dose 4 μg): 1 | activity in words [4]: very pronounced protective effects

NN [hydrazine, hydrate]
No. animals surviving after 5-9 days ([5]; total dose 5 μg): 4 | Survivors ([5]; total dose 5 μg): 0 | No. animals surviving after 5-9 days ([5]; total dose 50 μg): 4 | Survivors ([5]; total dose 50 μg): 0 | No. animals surviving after 5-9 days ([5]; total dose 500 μg): 5 | Survivors ([5]; total dose 500 μg): 0 | No. animals surviving after 5-9 days ([5]; total dose .00005 μg): 6 | Survivors ([5]; total dose .00005 μg): 0 | No. animals surviving after 5-9 days ([5]; total dose .0005 μg): 6 | Survivors ([5]; total dose .0005 μg): 0 | No. animals surviving after 5-9 days ([5]; total dose .005 μg): 3 | Survivors ([5]; total dose .005 μg): 0 | No. animals surviving after 5-9 days ([5]; total dose .05 μg): 3 | Survivors ([5]; total dose .05 μg): 1 | No. animals surviving after 5-9 days ([5]; total dose .5 μg): 6 | Survivors ([5]; total dose .5 μg): 0 | No. animals surviving after 5-9 days ([7]; total dose 5 μg): 6 | Survivors ([7]; total dose 5 μg, hydrate): 3 | No. animals surviving after 5-9 days ([7]; total dose 50 μg, hydrate): 7 and 4 | Survivors ([7]; total dose 500 μg): 0 | No. animals surviving after 5-9 days ([7]; total dose 500 μg, hydrate): 6 and 3 | No. animals surviving after 5-9 days ([7]; total dose .00005 μg): 1 | Survivors ([7]; total dose .00005 μg): 0 | No. animals surviving after 5-9 days ([7]; total dose .0005 μg, hydrate): 5 and 7 | No. animals surviving after 5-9 days ([7]; total dose .005 μg, hydrate): 3 and 4 | No. animals surviving after 5-9 days ([7]; total dose .05 μg, hydrate): 4 and 6 | No. animals surviving after 5-9 days ([7]; total dose .5 μg, hydrate): 7 and 5 | No. animals surviving after 6-10 days ([1]; total dose 5 μg): 1 | No. animals surviving when 100% (or given fraction) of controls are dead ([1]; total dose 5 μg): 0 | Survivors ([1]; total dose 5 μg): 0 | No. animals surviving after 6-10 days ([1]; total dose 50 μg): 1 | No. animals surviving when 100% (or given fraction) of controls are dead ([1]; total dose 50 μg): 0 | Survivors ([1]; total dose 50 μg): 0 | No. animals surviving after 6-10 days ([1]; total dose .000005 μg): 4 | No. animals surviving when 100% (or given fraction) of controls are dead ([1]; total dose .000005 μg, hydrate): 4 | Survivors ([1]; total dose .0005 μg, hydrate): 1 | No. animals surviving when 100% (or given fraction) of controls are dead ([1]; total dose .5 μg): 1 | Survivors ([1]; total dose .5 μg): 1 | No. animals surviving after 6-10 days ([1]; total dose .5 μg, hydrate): 1 | activity in words [4]: active

NNC(N)=O [semicarbazide, hydrochloride]
Statistical Significance of Tail Lesions ([8]; 10 ng, day 6): < .01 | Statistical Significance of Tail Lesions ([8]; 10 ng, day 11): < .05 | Statistical Significance of Tail Lesions ([8]; 10 ng, day 12): < .05 | Statistical Significance of Tail Lesions ([8]; 10 ng, day 17): < .05 | Statistical Significance of Tail Lesions ([8]; 1 μg, day 6): < .01 | Statistical Significance of Tail Lesions ([8]; 1 μg, day 8): < .01 | Statistical Significance of Tail Lesions ([8]; 1 μg, day 10): < .01 | Statistical Significance of Tail Lesions ([8]; 1 μg, day 11): < .01 | Statistical Significance of Tail Lesions ([8]; 1 μg, day 12): < .01 | Statistical Significance of Tail Lesions ([8]; 1 μg, day 14): < .01 | Statistical Significance of Tail Lesions ([8]; 1 μg, day 17): < .01 | Statistical Significance of Tail Lesions ([8]; 1 μg, day 21): < .05 | Statistical Significance of Tail Lesions ([8]; 10 [μg], day 7): < .01 | Statistical Significance of Tail Lesions ([8]; 10 [μg], day 10): < .05 | Statistical Significance of Tail Lesions ([8]; 10 [μg], day 11): < .01 | Statistical Significance of Tail Lesions ([8]; 10 [μg], day 12): < .01 | Statistical Significance of Tail Lesions ([8]; 10 [μg], day 14): < .01 | Statistical Significance of Tail Lesions ([8]; 10 [μg], day 17): < .01 | Statistical Significance of Tail Lesions ([8]; 10 [μg], day 21): < .05 | Statistical Significance of Tail Lesions ([8]; 100 [ng], day 7): < .05 | Statistical Significance of Tail Lesions ([8]; 100 [ng], day 11): < .05 | Statistical Significance of Tail Lesions ([8]; 100 [ng], day 12): < .05 | Statistical Significance of Tail Lesions ([8]; 100 [ng], day 14): < .05 | Statistical Significance of Tail Lesions ([8]; 100 [ng], day 17): < .01 | Statistical Significance of Tail Lesions ([8]; 100 [ng], day 21): < .01 | No. animals surviving after 6-9 days ([3]; total dose 5 μg, hydrochloride): 5 | No. animals surviving after 6 days ([9]; total dose .0075 μg): 1/2 | Survivors ([9]; total dose .75 μg): 0 | activity in words [4]: effective

CCC(C)=NNC(N)=S [thiosemicarbazone]
instances of statistically significant geometric mean survival time [10]: two | effect on pox formation [11]: very striking effects of the drug on the pox formation; also recorded: highly significant diminution of pox formation
